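Tested at 5 concentrations; 48 h exposure; 96-well plates; endpoints linearly interpolated, else capped at highest concentration. GI50 is the concentration that inhibits growth by half. TGI denotes the concentration required for complete inhibition of growth.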
Key:
Experiment in all cases: DTP human tumour cell line panel, 48 h
EKVX NSCLC = tested on: EKVX NSCLC
RPMI-8226 leukemia = tested on: RPMI-8226 leukemia
786-0 renal = tested on: 786-0 renal
HOP-62 NSCLC = tested on: HOP-62 NSCLC
SK-MEL-5 melanoma = tested on: SK-MEL-5 melanoma
HS 578T breast = tested on: HS 578T breast
CAKI-1 renal = tested on: CAKI-1 renal
SNB-19 CNS = tested on: SNB-19 CNS
M14 melanoma = tested on: M14 melanoma
PC-3 prostate = tested on: PC-3 prostate

| SMILES | TGI (EKVX NSCLC) | TGI (RPMI-8226 leukemia) | TGI (786-0 renal) | TGI (HOP-62 NSCLC) | TGI (SK-MEL-5 melanoma) | TGI (HS 578T breast) | TGI (CAKI-1 renal) | TGI (SNB-19 CNS) | TGI (M14 melanoma) | TGI (PC-3 prostate) | GI50 (EKVX NSCLC) | GI50 (RPMI-8226 leukemia) | GI50 (786-0 renal) | GI50 (SK-MEL-5 melanoma) | GI50 (HS 578T breast) | GI50 (CAKI-1 renal) | GI50 (SNB-19 CNS) | GI50 (M14 melanoma) | GI50 (PC-3 prostate) | GI50 (HOP-62 NSCLC) |
| --- | --- | --- | --- | --- | --- | --- | --- | --- | --- | --- | --- | --- | --- | --- | --- | --- | --- | --- | --- | --- |
| NC(CO)C(=O)NCC(=O)O (stereo not drawn) | > 100 µM | > 100 µM | > 100 µM | > 100 µM | > 100 µM | > 100 µM | > 100 µM | > 100 µM | > 100 µM | > 100 µM |  |  |  |  |  |  |  |  |  |  |
| Cc1cn2c(/C=N/N=C(N)N)c(-c3ccsc3)nc2s1 | 27.4 µM | 16 µM | 19.7 µM |  | 5.19 µM | 37.8 µM | 32.7 µM | 23.7 µM | 37.3 µM | 20.1 µM | 13.8 µM | 3.69 µM | 5.89 µM | 2.71 µM | 13 µM | 17.4 µM | 7.31 µM | 11.5 µM | 7.5 µM |  |
| COc1ccc(/C(=N/O)c2cc(OC)c(OC)c(OC)c2)c(OC)c1N | > 100 µM | > 100 µM | > 100 µM | > 100 µM | > 100 µM | > 100 µM | > 100 µM | > 100 µM | > 100 µM | > 100 µM | 6.64 µM | 5.35 µM | 12.7 µM | 5.34 µM | 4.74 µM | 5.53 µM | 5.32 µM | 2.7 µM | 3.97 µM | 6.55 µM |
| Oc1c(CNCCNCc2cc(Cl)cc(Cc3ccccc3)c2O)cc(Cl)cc1Cc1ccccc1 | > 100 µM | 6.39 µM | 10.4 µM | 47.3 µM | 1.91 µM | 59.3 µM | 18.7 µM | > 100 µM | 10.7 µM | > 100 µM | 0.193 µM | 0.695 µM | 0.375 µM | 0.302 µM | 3.91 µM | 0.338 µM | 0.701 µM | 0.316 µM | 0.62 µM | 0.307 µM |
| Oc1ccccc1C=Nc1ccccc1N=Cc1ccccc1O.[Cu+2] | 23.6 µM | 40.8 µM | 24.7 µM | 11.7 µM | 3.46 µM | 92 µM | 12.4 µM | 26.3 µM | 16.4 µM | 16.2 µM | 8.62 µM | 2.09 µM | 10.8 µM | 1.66 µM | 15.4 µM | 2.74 µM | 13 µM | 4.33 µM | 3.49 µM | 2.99 µM |
| COc1ccc2nccc(/C=C/c3ccnc4ccc(OC)cc34)c2c1 | > 100 µM | 39.9 µM | > 100 µM | > 100 µM | > 100 µM | 90.1 µM | > 100 µM | > 100 µM | > 56 µM | > 79.9 µM | > 61.2 µM | 17.8 µM | > 100 µM | > 71.4 µM | 23.6 µM | > 82.4 µM | > 100 µM | > 42 µM | > 47.5 µM | > 64.3 µM |
| COc1cc2c(cc1O)C(c1cc(O)c(O)c(OC)c1)C(O)(C(=O)O)C(CO)C2O (stereo not drawn) | 36.9 µM | > 100 µM | 30.5 µM | > 100 µM | > 100 µM | > 100 µM | > 100 µM | > 100 µM | > 100 µM | > 100 µM |  |  |  |  |  |  |  |  |  |  |
| NCCN1C(=O)c2ccccc2C1(O)c1ccc(Cl)cc1 (stereo not drawn) | 52.3 µM | 39.7 µM | 30.9 µM | 89.8 µM | 31.3 µM | 33.1 µM | > 100 µM | 61 µM | 36 µM | 50 µM |  |  |  |  |  |  |  |  |  |  |
| CC12CCC(O)CC1=CCC1C2CCC2(C)C(c3cccnc3)=CCC12 (stereo not drawn) | > 100 µM | > 100 µM | > 100 µM | > 100 µM | > 100 µM | > 100 µM | > 100 µM | > 100 µM | > 100 µM | > 100 µM | > 100 µM | 39.1 µM | 50.4 µM | 74.2 µM | > 100 µM | > 100 µM | > 100 µM | > 100 µM | > 100 µM | > 100 µM |
| CC(OC(=O)N(N(CCCl)S(C)(=O)=O)S(C)(=O)=O)c1ccc([N+](=O)[O-])cc1 (stereo not drawn) | > 76.9 µM | > 61.4 µM | > 100 µM | > 100 µM | 44.7 µM | > 92 µM | > 100 µM | > 100 µM | > 100 µM | > 100 µM | 23.4 µM | > 40.4 µM | 44.7 µM | 16.1 µM | > 54.7 µM | 64.3 µM | > 88.9 µM | 49.4 µM | > 66.7 µM | 29.4 µM |
| CN(C)CCNc1nc2ccccc2c2occc12 | > 100 µM | > 100 µM | > 100 µM | > 100 µM | 32.2 µM | > 100 µM | > 100 µM | > 100 µM | 68.5 µM | > 100 µM | 59.5 µM | 58 µM | 62 µM | 14.5 µM | 99.4 µM | 52.7 µM | 71.7 µM | 28.8 µM | 36 µM | 96.2 µM |
| CN(C)CCOc1ccc(-c2cc(-c3ccc4c(c3)CC/C4=N\O)c(-c3ccncc3)o2)cc1 | 8.07 µM | 10.7 µM | 7.75 µM | 7.92 µM | 5.86 µM | 12.4 µM | 8.71 µM | 8.6 µM | 3.39 µM | 8.22 µM | 3.93 µM | 4.28 µM | 3.55 µM | 2.2 µM | 4.59 µM | 4.19 µM | 4.68 µM | 0.0653 µM | 4.16 µM | 3.84 µM |
| CC(=O)c1ccc2c(c1)N(CCCN(C)C)c1ccccc1S2 | 30.9 µM | 43.3 µM | 25 µM | 31.6 µM | 26.2 µM | 27.8 µM | 26.4 µM | 43.2 µM | 30 µM | 30.2 µM | 13.1 µM | 18 µM | 12 µM | 13.2 µM | 11.6 µM | 12.6 µM | 18.6 µM | 14.9 µM | 14.2 µM | 15.6 µM |

— PubChem BioAssay (NCI)
